Results taken from patent publication US20160095845A1, “COMPOSITION COMPRISING (S)-(-)-BENPROPERINE FOR PREVENTING OR TREATING CANCER” (KOREA RESEARCH INSTITUTE OF BIOSCIENCE AND BIOTECHNOLOGY, priority 2014, published 2016).

What was measured:
[1] = tested on: DLD-1 cells, PRL-3 over-expressed colorectal cancer cell line; test: Transwell cell migration assay; format: cell-based, human; settings: for inhibition at 0.5 µM: DLD-1, 0.5 μM (FIG. 3b); for inhibition at 0.5 µM / inhibition at 5 µM: compared to DMSO-treated control; for inhibition at 5 µM: DLD-1, 5 μM (FIG. 3a)
Protocol: (§1) To analyze inhibitory activity against the migration and invasion of (S)-(−)-benproperine cancer cells, a cell migration and invasion assay was caned out using DLD-1 cells (ATCC-CCL-221), a PRL-3 over-expressed colorectal cancer cell line, using a transwell as described below.
(§2) First, DLD-1 cells (ATCC-CCL-221) were allowed to grow to about 90% in a culturing plate containing an RPMI medium, then removed from the medium and washed with PBS. The washed cells were treated with trypsin-EDTA and cultured in a CO2 incubator at 37° C. for […] to detach the cells. Then an RPMI medium containing 10% FBS was added thereto, and the cells were collected in a Falcon tube and centrifuged to remove the medium. The thus-obtained cells were charged with an FBS-free RPMI medium and centrifuged to remove the medium, and these step were repeated twice. The thus-obtained cells were charged with an FBS-free RPMI medium and then suspended to measure the number of cells using a hemocytometer.
(§3) Thereafter, the transwell was placed on top of a 24-well plate and charged with cells of 8×10^4 cell/200 The transwell was charged with 500 μL of an FBS-free RPMI medium containing the (S)-(−)-benproperine, prepared in Example 1, through the gap, and cultured in a CO2 incubator at 37° C. for 12 hours to 16 hours. After culturing, the transwell was turned upside down on a hand towel to remove the medium, then each well of the 24-well plate was charged with 500 μL of crystal violet (5 mg/mL in 20% MeOH). The transwell was placed back on top of the 24-well plate and incubated in a CO2 incubator for 30 minutes. The stained transwell was washed with PBS and turned upside down on a hand towel to let the remaining solution infiltrate into the hand towel. A region where the cells had not moved was labeled as the top of a film by placing a cover slip on top of the film, and the cells that had not moved were wiped off with a cotton swab. A small amount of nail polish was applied to the edge of the cover slip, and a slide glass was placed on top to fix the cover slip. The thus-prepared sample was photographed using an inverted microscope (TE 300, Nikon, Japan) with a digital camera installed, and the number of migrated cells was calculated.
Subsequently, cell migration inhibition was calculated via Mathematical Formula 1 shown below.
(§4) According to the Mathematical Formula 1 above, “the number of migrated cells in sample-treated group” refers to a number of migrated cells measured after treating DLD-1 with (S)-(−)-benproperine (S-Benp) prepared in Example 1, (R)-(+)-benproperine (R-Benp) prepared in Comparative Example 1, or a mixed racemate having a 1:1 weight ratio of (S)-(−)-benproperine to (R)-(+)-benproperine, and “the number of migrated cells in control group” refers to a number of migrated cells measured after treating DLD-1 with 1% dimethyl sulfoxide (DMSO) alone, instead of benproperine.

[2] = tested on: DLD-1 cells, PRL-3 over-expressed colorectal cancer cell line; test: Transwell cell invasion assay; format: cell-based; settings: Homo sapiens; for inhibition at 1 µM: DLD-1, 1 μM (FIG. 5b); for inhibition at 1 µM / inhibition at 5 µM: compared to DMSO-treated control; for inhibition at 2 µM: DLD-1, 2 μM (FIG. 5b); for inhibition at 5 µM: DLD-1, 5 μM (FIG. 5a)
Protocol: as §1, §2, §3, §4

[3] = tested on: cancer cells (DLD-1, AsPc-1, B16-BL6); test: Cytotoxicity assay (WST-1); format: cell-based; settings: 5 μM, 48 hours
Protocol: (§5) To verify the cytotoxicity of (S)-(−)-benproperine, prepared in Example 1, DLD-1 cells (ATCC-CCL-221), a human colorectal cancer cell line, AsPc-1′ cells (ATCC-CRL-1682), a pancreatic cancer cell line, B16-BL6 cells (ATCC-CRL-6475), a melanoma cell line, and normal cells of MCF10A (ATCC-CRL-10317) were cultured in an RPM medium containing 10% fetal bovine serum (FBS) while maintaining a temperature at 37° C. and 5% CO2, and the cells were then detached from the medium using 0.05% trypsin-EDTA. Each well of a 96-well plate including the medium containing 10% FBS was inoculated with 410^3 cells, calculated with a hemocytometer, and the cells were cultured in an incubator containing 5% CO2 at 37° C.
(§6) After 24 hours, the medium of each well was replaced with a new medium containing a control group (0.1% DMSO) and 5 μM of benproperine, prepared in either of Example 1 or Comparative Example 1. The cells in the new media were then cultured in an incubator containing 5% CO2 at 37° C. for 48 hours. Each well was then charged with 10 μL of WST-1 (Roche), culturing was continued for 2 hours, and absorbance was measured at 450 nm by ELISA Reader (Bio-Rad).

[4] = tested on: normal cells of MCF10A; test: Cytotoxicity assay (WST-1); format: cell-based; settings: 5 μM, 48 hours
Protocol: as §5, §6

[5] = tested on: MCF10A cells; test: Transwell cell migration assay, normal cells; format: cell-based; settings: 10 μM (FIG. 4)
[6] = Acute toxicity experiment of oral administration on rats; settings: SD, in vivo, 1000 mg/kg; rat, oral; read-out: minimum lethal oral dose (LD50)
Protocol: (§7) 6-week-old specific pathogen free SD type rats were divided into groups, where each group contains two rats. The (S)-(−)-benproperine, prepared in Example 1, was dissolved in water for injection, and orally administered to each rat once at a volume of 1000 mg/kg.

[7] = tested on: SD type rats; test: as above; settings: rat, in vivo, po, 1000 mg/kg
Protocol: as §7

SMILES	inhibition at 0.5 µM ([1]; Homo sapiens)	inhibition at 2 µM ([1]; Homo sapiens, DLD-1, 2 μM (FIG. 3b))	inhibition at 5 µM ([1]; Homo sapiens)	inhibition at 1 µM [2]	inhibition at 2 µM [2]	inhibition at 5 µM [2]	cytotoxicity [3]	cytotoxicity [4]	inhibitory activity against cell migration relative to the racemate ([1]; DLD-1, 52% at 1 μM vs racemate 53% at 2 μM)	inhibition at 1 µM ([1]; Homo sapiens, DLD-1, 1 μM (FIG. 3b))	inhibition of migration of normal cells [5]	highest tested oral dose (no deaths) [6]	animal death [7]	clinical symptoms [7]	toxicity in weight fluctuation, hematological and blood biochemical examinations, post-mortem reports [7]
CC(COc1ccccc1Cc1ccccc1)N1CCCCC1 (racemic) [racemate, 1-[1-(2-benzylphenoxy)propan-2-yl]piperidine, reference compound]	3%	53%	71%	21%	36%	73%	–	–	–	–	–	–	–	–	–
C[C@@H](COc1ccccc1Cc1ccccc1)N1CCCCC1 [(S)-(−)-benproperine]	32%	–	89%	36%	57%	90%	did not exhibit the cytotoxicity	did not exhibit the cytotoxicity	twice as much inhibitory activity against the cell migration as the racemate	52%	did not inhibit the migration	1000 mg/kg	none died	showed noteworthy clinical symptoms	nor showed any toxicity
